Data published in US9115092B2, “Substituted quinazoline and pyrido-pyrimidine derivatives” (Asana Biosciences, LLC, priority 2010, dated 2015).

Legend:
[1] = target: T1, mTOR kinase (Homo sapiens, UniProt P42345); assay: mTOR kinase TR-FRET assay; assay type: biochemical; settings: read-out: mTO R
T1 construct: purchased Millipore, USA
Method: Compound inhibition for mTOR kinase was determined in a homogeneous TR-FRET assay using the Lance® ULight-p70 S6K (Thr 389) peptide (obtained from Perkin-Elmer). The ULight™-labeled synthetic peptide contains the amino acid residues surrounding Thr389 of human p70 S6K. The ULight-p70 S6K peptide is phosphorylated at Thr389 by mTOR. Phosphorylation motif: LGFTYVAP as substrate.
The compound dilution was carried out in 100% DMSO followed by a buffer dilution. The reaction buffer was HEPES (50 mM pH 7.5), EGTA (1 mM), MnCl2 (3 mM). Test compounds at various concentrations were pre-incubated with mTOR (Millipore, USA; 5 ng) for 60 min, and then the Lance® ULight-p70 S6K (Thr 389) peptide (50 nM) was added along with ATP (20 μM). After incubating the reaction mixture for 60 min at room temperature, the kinase reaction was terminated by the addition of EDTA (10 mM) followed by the addition of detection mix, i.e., 1 nM Eu-labeled anti-phospho-substrate antibody (Perkin Elmer, USA). The fluorescence emission at […] was measured upon excitation at 340 nm. IC50 values were subsequently determined using a sigmoidal dose-response curve (variable slope) in GraphPad Prism® 5 software.
Compounds of formula (I) caused inhibition of mTOR kinase activity as determined by this assay.

[2] = target: T2, PI3Kα (wild-type), P110/P85α (Homo sapiens, UniProt P42336); assay: PI3 Kinase TR-FRET assay, PI3Kα (wild-type); assay type: biochemical
T2 construct: made in house; host or cells: SF9 insect cells
T2 sequence (P42336 whole entry): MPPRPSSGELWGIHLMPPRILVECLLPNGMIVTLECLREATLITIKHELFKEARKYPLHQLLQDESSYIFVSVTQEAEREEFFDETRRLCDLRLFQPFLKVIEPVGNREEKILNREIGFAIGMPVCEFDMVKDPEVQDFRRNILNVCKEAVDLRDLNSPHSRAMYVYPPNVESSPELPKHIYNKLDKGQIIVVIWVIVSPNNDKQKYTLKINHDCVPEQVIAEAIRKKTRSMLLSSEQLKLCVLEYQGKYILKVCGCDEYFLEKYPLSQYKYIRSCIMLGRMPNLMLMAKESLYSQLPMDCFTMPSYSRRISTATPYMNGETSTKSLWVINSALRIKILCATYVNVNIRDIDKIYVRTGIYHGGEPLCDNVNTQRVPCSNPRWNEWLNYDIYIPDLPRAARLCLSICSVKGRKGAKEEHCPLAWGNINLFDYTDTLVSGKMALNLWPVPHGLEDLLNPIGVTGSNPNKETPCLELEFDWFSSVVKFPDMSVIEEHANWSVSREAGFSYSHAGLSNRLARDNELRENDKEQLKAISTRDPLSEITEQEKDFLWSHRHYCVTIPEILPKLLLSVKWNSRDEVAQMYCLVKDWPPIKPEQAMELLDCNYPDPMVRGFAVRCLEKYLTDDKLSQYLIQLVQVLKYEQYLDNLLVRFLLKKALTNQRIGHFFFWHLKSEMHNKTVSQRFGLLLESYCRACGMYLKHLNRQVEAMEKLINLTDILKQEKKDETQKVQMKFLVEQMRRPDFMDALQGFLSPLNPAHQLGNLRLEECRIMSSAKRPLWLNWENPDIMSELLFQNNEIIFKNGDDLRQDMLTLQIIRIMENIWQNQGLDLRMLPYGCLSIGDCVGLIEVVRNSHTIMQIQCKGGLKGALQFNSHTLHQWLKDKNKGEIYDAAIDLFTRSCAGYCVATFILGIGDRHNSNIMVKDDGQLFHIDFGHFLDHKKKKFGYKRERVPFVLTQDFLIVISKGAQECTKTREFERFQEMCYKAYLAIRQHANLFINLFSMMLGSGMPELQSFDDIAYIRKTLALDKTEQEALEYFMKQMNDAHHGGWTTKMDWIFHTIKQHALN
T2 sequence (P27986 whole entry partner): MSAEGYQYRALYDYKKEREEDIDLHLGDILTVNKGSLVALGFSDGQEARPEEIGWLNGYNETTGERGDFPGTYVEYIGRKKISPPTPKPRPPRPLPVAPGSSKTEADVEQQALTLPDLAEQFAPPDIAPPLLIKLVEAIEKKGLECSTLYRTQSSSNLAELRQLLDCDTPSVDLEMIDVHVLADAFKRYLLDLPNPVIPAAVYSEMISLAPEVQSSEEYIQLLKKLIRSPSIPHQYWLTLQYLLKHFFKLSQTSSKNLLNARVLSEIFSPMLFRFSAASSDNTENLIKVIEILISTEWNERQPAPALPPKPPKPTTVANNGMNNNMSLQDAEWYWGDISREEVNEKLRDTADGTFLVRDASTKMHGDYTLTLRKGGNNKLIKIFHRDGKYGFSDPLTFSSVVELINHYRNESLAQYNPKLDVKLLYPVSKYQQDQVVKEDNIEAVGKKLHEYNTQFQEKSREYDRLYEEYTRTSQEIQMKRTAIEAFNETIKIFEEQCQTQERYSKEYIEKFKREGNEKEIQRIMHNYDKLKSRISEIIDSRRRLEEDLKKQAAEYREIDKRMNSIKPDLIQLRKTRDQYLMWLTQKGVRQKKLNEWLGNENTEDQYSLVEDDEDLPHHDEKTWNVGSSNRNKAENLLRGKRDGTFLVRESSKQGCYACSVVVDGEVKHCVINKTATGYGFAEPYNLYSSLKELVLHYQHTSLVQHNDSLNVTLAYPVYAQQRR
Method: The ability of compounds of the invention to inhibit PI3K activity was determined in a homogeneous TR-FRET assay using a PI3K assay kit (Millipore, USA; cat #33-016) according to manufacturer's instructions. PI3-Kinases (isoforms α, β, γ and δ) catalyze the phosphorylation of phosphatidylinositol, PIP2 to PIP3 in the presence of ATP and Mg^2+. The PIP3 product is detected by displacement of biotin-PIP3 from an energy transfer complex consisting of Europium labeled anti-GST monoclonal antibody, a GST-tagged PH domain, biotinylated PIP3 and Streptavidin-APC. Excitation of Europium in the complex results in an energy transfer to the APC and a fluorescence emission at 665 nm. The PIP3 product displaces biotin-PIP3 from the complex resulting in a loss of energy transfer and thus a decrease in signal.
To test for the ability of compounds to inhibit the activity of PI3Kα (wild-type), exemplary compounds of formula (I) were dissolved in DMSO and directly distributed into 384-well plates at a volume of 0.5 μL. 14.5 μL of P110/P85α/PIP2 mixture in buffer (obtained from the Millipore kit) containing MgCl2 (40 mM) and DTT (5 mM) was added to compound wells and incubated for 60 min at room temperature. P110/P85α was expressed in SF9 insect cells and purified nickel column extraction. Five ng of wild-type P110/P85α was used in the assay. The kinase reaction was started by the addition of ATP. The assay concentrations of both PIP2 and ATP were 10 μM. The reaction mixture was incubated for 30 min at room temperature and was terminated by the addition of stop mix and detection mix. Fluorescence was measured at 615 and 665 nm upon excitation at 340 nm in a Victor™ V5 fluorometer (Perkin Elmer, USA). The fluorescence emission ratio at 665 to 615 nm, proportional to the kinase activity, was plotted against the compound concentration to generate dose-response curves and IC50 values were determined using GraphPad Prism® 5 software.

| Compound | IC50 [1] [nM] | IC50 [2] [nM] |
| --- | --- | --- |
| Cc1ccc(-c2ccc3c(N4CCOC(C)C4)nc(-c4ccc(NC(=O)Nc5ccc(C(=O)N(C)C)cc5)cc4)nc3c2)o1 (stereo not drawn) [Example 142, N,N-dimethyl-4-(3-(4-(7-(5-methylfuran-2-yl)-4-(2-methylmorpholino)quinazolin-2-yl)phenyl)ureido)-benzamide] | 50 to 200 | 50 to 200 |
| CN(C)C(=O)c1ccc(NC(=O)Nc2ccc(-c3nc(N4CCOCC4)c4cc(F)c(-c5ccco5)cc4n3)cc2)cc1 [Example 149, 4-(3-(4-(6-fluoro-7-(furan-2-yl)-4-morpholino-quinazolin-2-yl)phenyl)ureido)-N,N-dimethyl-benzamide] | 50 to 200 | 50 to 200 |
| COc1ccc(-c2ccc3c(N4CCOCC4)nc(-c4ccc(NC(=O)Nc5ccc(C(=O)N(C)C)cc5)c(F)c4)nc3c2)cn1 [Example 151, 4-(3-(2-fluoro-4-(7-(6-methoxypyridin-3-yl)-4-morpholino-quinazolin-2-yl)phenyl)ureido)-N,N-dimethyl-benzamide] | 50 to 200 | 50 to 200 |
| CN(C)C(=O)c1ccc(NC(=O)Nc2ccc(-c3nc(N4CCOCC4)c4ccc(-c5ccccn5)cc4n3)cc2F)cc1 [Example 156, 4-(3-(2-fluoro-4-(4-morpholino-7-(pyridin-2-yl)quinazolin-2-yl)phenyl)ureido)-N,N-dimethyl-benzamide] | 50 to 200 | 50 to 200 |
| CN1CCN(C(=O)c2ccc(NC(=O)Nc3ccc(-c4nc(N5CCOCC5)c5ccc(-c6ccco6)cc5n4)cc3)cc2)CC1 [Example 158, 1-(4-(7-(furan-2-yl)-4-morpholino-quinazolin-2-yl)phenyl)-3-(4-(4-methylpiperazine-1-carbonyl)phenyl)urea] | 50 to 200 | < 50 |
| CN(C)C(=O)c1ccc(NC(=O)Nc2ccc(-c3nc(N4CCOCC4)c4ccc(-c5cncc(F)c5)cc4n3)cc2)cc1 [Example 164, 4-(3-(4-(7-(5-fluoropyridin-3-yl)-4-morpholino-quinazolin-2-yl)phenyl)ureido)-N,N-dimethyl-benzamide] | < 50 | < 50 |
| Cc1ncccc1-c1ccc2c(N3CCOCC3)nc(-c3ccc(NC(=O)Nc4ccc(C(=O)N(C)C)cc4)cc3)nc2c1 [Example 165, N,N-dimethyl-4-(3-(4-(7-(2-methylpyridin-3-yl)-4-morpholino-quinazolin-2-yl)phenyl)ureido)-benzamide] | < 50 | < 50 |
| Cc1ccc(-c2ccc3c(N4CCOCC4)nc(-c4ccc(NC(=O)Nc5ccc(C(=O)N(C)C)cc5F)cc4)nc3c2)cn1 [Example 166, 3-fluoro-N,N-dimethyl-4-(3-(4-(7-(6-methylpyridin-3-yl)-4-morpholino-quinazolin-2-yl)phenyl)ureido)-benzamide] | < 50 | < 50 |
| Cc1ncccc1-c1ccc2c(N3CCOCC3)nc(-c3ccc(NC(=O)Nc4ccc(C(=O)N(C)C)cc4F)cc3)nc2c1 [Example 167, 3-fluoro-N,N-dimethyl-4-(3-(4-(7-(2-methylpyridin-3-yl)-4-morpholino-quinazolin-2-yl)phenyl)ureido)-benzamide] | < 50 | < 50 |
| CN(C)C(=O)c1ccc(NC(=O)Nc2ccc(-c3nc(N4CCOCC4)c4ccc(-c5ccccn5)cc4n3)cc2)c(F)c1 [Example 168, 3-fluoro-N,N-dimethyl-4-(3-(4-(4-morpholino-7-(pyridin-2-yl)quinazolin-2-yl)phenyl)ureido)-benzamide] | < 50 | < 50 |
| COc1ccncc1-c1ccc2c(N3CCOCC3)nc(-c3ccc(NC(=O)Nc4ccc(C(=O)N(C)C)cc4)cc3)nc2c1 [Example 169, 4-(3-(4-(7-(4-methoxypyridin-3-yl)-4-morpholino-quinazolin-2-yl)phenyl)ureido)-N,N-dimethyl-benzamide] | < 50 | < 50 |

Further lines, results first:

| IC50 [1] [nM] | IC50 [2] [nM] | Compound |
| --- | --- | --- |
| < 50 | 50 to 200 | CC1CN(c2nc(-c3ccc(NC(=O)Nc4ccc(C(=O)N(C)C)cc4)c(F)c3)nc3cc(-c4cncnc4)ccc23)CCO1 (stereo not drawn) [Example 144, 4-(3-(2-fluoro-4-(4-(2-methylmorpholino)-7-(pyrimidin-5-yl)quinazolin-2-yl)phenyl)ureido)-N,N-dimethyl-benzamide] |
| < 50 | < 50 | CN(C)C(=O)c1ccc(NC(=O)Nc2ccc(-c3nc(N4CCOCC4)c4ncc(-c5cccnc5F)cc4n3)cc2)c(F)c1 [Example 145, 3-fluoro-4-(3-(4-(7-(2-fluoropyridin-3-yl)-4-morpholino-pyrido[3,2-d]pyrimidin-2-yl)phenyl)ureido)-N,N-dimethyl-benzamide] |
| < 50 | < 50 | CC1CN(c2nc(-c3ccc(NC(=O)Nc4ccc(C(=O)N(C)C)cc4)cc3)nc3cc(-c4cnn(C)c4)cnc23)CCO1 (stereo not drawn) [Example 148, N,N-dimethyl-4-(3-(4-(7-(1-methyl-1H-pyrazol-4-yl)-4-(2-methylmorpholino)pyrido[3,2-d]pyrimidin-2-yl)phenyl)ureido)-benzamide] |
| < 50 | < 50 | CN(C)C(=O)c1ccc(NC(=O)Nc2ccc(-c3nc(N4CCOCC4)c4ccc(-c5cnc(O)nc5)cc4n3)cc2)cc1 [Example 150, 4-(3-(4-(7-(2-hydroxypyrimidin-5-yl)-4-morpholino-quinazolin-2-yl)phenyl)ureido)-N,N-dimethyl-benzamide] |
| < 50 | < 50 | CN(C)C(=O)c1ccc(NC(=O)Nc2ccc(-c3nc(N4CCOCC4)c4ncc(-c5cccnc5)cc4n3)cc2)c(F)c1 [Example 153, 3-fluoro-N,N-dimethyl-4-(3-(4-(4-morpholino-7-(pyridin-3-yl)pyrido[3,2-d]pyrimidin-2-yl)phenyl)ureido)-benzamide] |
| < 50 | < 50 | CN(C)C(=O)c1ccc(NC(=O)Nc2ccc(-c3nc(N4CCOCC4)c4ncc(-c5cncnc5)cc4n3)cc2)c(F)c1 [Example 154, 3-fluoro-N,N-dimethyl-4-(3-(4-(4-morpholino-7-(pyrimidin-5-yl)pyrido[3,2-d]pyrimidin-2-yl)phenyl)ureido)-benzamide] |
| < 50 | < 50 | COc1ncc(-c2cnc3c(N4CCOCC4)nc(-c4ccc(NC(=O)Nc5ccc(C(=O)N(C)C)cc5F)cc4)nc3c2)cn1 [Example 157, 3-fluoro-4-(3-(4-(7-(2-methoxypyrimidin-5-yl)-4-morpholino-pyrido[3,2-d]pyrimidin-2-yl)phenyl)ureido)-N,N-dimethyl-benzamide] |
| < 50 | < 50 | Cc1ccc(-c2ccc3c(N4CCOCC4)nc(-c4ccc(NC(=O)Nc5ccc(C(=O)N(C)C)cc5)cc4)nc3c2)cn1 [Example 161, N,N-dimethyl-4-(3-(4-(7-(6-methylpyridin-3-yl)-4-morpholino-quinazolin-2-yl)phenyl)ureido)-benzamide] |
| < 50 | < 50 | Cc1nn(C)c(C)c1-c1ccc2c(N3CCOCC3)nc(-c3ccc(NC(=O)Nc4ccc(C(=O)N(C)C)cc4)cc3)nc2c1 [Example 162, N,N-dimethyl-4-(3-(4-(4-morpholino-7-(1,3,5-trimethyl-1H-pyrazol-4-yl)quinazolin-2-yl)phenyl)ureido)-benzamide] |
| < 50 | < 50 | COc1ncccc1-c1ccc2c(N3CCOCC3)nc(-c3ccc(NC(=O)Nc4ccc(C(=O)N(C)C)cc4)cc3)nc2c1 [Example 163, 4-(3-(4-(7-(2-methoxypyridin-3-yl)-4-morpholino-quinazolin-2-yl)phenyl)ureido)-N,N-dimethyl-benzamide] |
